Assay results as given in patent US20140099257A1, “Androgen Suppression, Prostate-Specific Membrane Antigen and the Concept of Conditionally Enhanced Vulnerability” (CORNELL UNIVERSITY, priority 2012, published 2014).

Tested on: AR
Assay: Silencing of AR with siRNA in prostate cancer cell lines; AR, PSMA expression (FACS, western blot) and PSA secretion
Type: cell-based, human
Settings: FACS analysis of LNCaP, MDA-Pca-2b and LAPC-4 cells (FIG. 6)
Description: For western blots, cells were lysed with Cell Lysis Buffer (Cell Signaling Technology, Danvers, Mass.) containing 1 mM phenylmethylsulphonyl fluoride (EMD Chemicals, Gibbstown, N.J.). Equal amounts of protein were applied in each well on a 10% Tris-HCl gel (Bio-Rad Laboratories, Hercules, Calif.). The proteins were transferred onto Immobilon-P Membranes (Millipore, Billerica, Mass.), after which the filters were probed with the following reagents: murine anti-PSMA mAb J591, murine mAb anti-AR (AR441), rabbit anti-human AR, murine mAb anti-human beta-actin, and/or goat polyclonal anti-GAPDH. For quantitative western blots, the Li-cor Odyssey Infrared Imaging System (Lincoln, Nebr.) was used. With this system, two different proteins of the same molecular weight (e.g., PSMA and AR) can be detected simultaneously and quantified on the same blot using two different antibodies from two different species (mouse and rabbit) followed by detection with two IRDye labeled secondary antibodies. […] After washing, the membranes were scanned and the bands were quantified with the Odyssey Infrared Imaging System.
Fluorescence-activated cell sorting (FACS) analysis was also employed in these examples0. […]

In the case of “non-targeted-siRNA: non-targeting control siRNA 5′-CCUACGCCACCAAUUUCGU-3′ (Dharmacon) (chemistry not given here)”, the AR expression is reported as “did not affect expression” and the PSMA expression is reported as “did not affect expression”.
